We go through four compounds from patent US20080161348A1, “PTX3-GENE EXPRESSION INHIBITOR” (KOWA CO., LTD., priority 2002, published 2008).

The test system of experiment [1] is PTX3 gene. The following applies: constant expression in synovial cells; Clin. Exp. Immunol., 119(1), 196-202 (2000); cited from earlier work.
Experiment [2] concerns PTX3 gene. In words: PTX3 gene expression analysis by GeneChip array in HUVEC. The class given is cell-based, human. The settings on record: 8 hours after addition, control 1113.0. Here is the method:
(§1) Two days after inoculation of normal human umbilical vein endothelial cells (HUVEC) or human coronary artery smooth muscle cells (HCASMC) at 3×10^5 cells/10 cm dish, pitavastatin calcium or atorvastatin calcium was added to 1.1 μmol/L and 6.6 μmol/L, respectively. Dimethyl sulfoxide, a solvent for both of the active ingredients, was added to a control (final concentration: 0.0066 v/v %). Eight hours after the addition, total RNA was extracted with “ISOGEN” (trade mark, product of NIPPON GENE CO., LTD.). The following procedures was conducted in accordance with the procedures manual of Affymetrix. Inc. Described specifically, mRNA was isolated from the above-obtained total RNA, and based on the mRNA, cDNA was synthesized. Further, biotin-labeled cRNA was synthesized by in vitro transcription. Subsequent to purification, the biotin-labeled cRNA was subjected to fragmentation by heat treatment to prepare fragmented cRNA for use in a gene expression analysis.
(§2) Gene expression analysis method: The fragmented CRNA was poured into “Hugene Human FL Array” (trade name, product of Affymetrix, Inc.), and hybridization was conducted at 45° C. for 16 hours. […] The information was analyzed by “GENECHIP SOFTWARE” (trade name, product of Affymetrix, Inc.) to compare expression levels.

Experiment [3] relates to PTX3 gene. Put plainly: PTX3 gene expression by RT-PCR and agarose gel electrophoresis in HUVEC. In kind it is cell-based, human. The settings on record: both 8 hours later and 24 hours later. As to the method: (§3) Two days after inoculation of HUVEC at 3×10^5 cells/10 cm dish, pitavastatin calcium or atorvastatin calcium was added to 1.1 μmol/L and 6.6 μmol/L, respectively. To ascertain possible concentration dependency of PTX3 gene expression suppressing effect of pitavastatin, pitavastatin calcium was also added to 1 μmol/L and 10 μmol/L upon elapsed time of 2 days after inoculation of HUCEC or HCASMC at 3×10^5 cells/10 cm dish. To controls under the respective conditions, dimethyl sulfoxide, a solvent for both of the active ingredients, was added (final concentration: 0.0066 v/v %) Eight or 24 hours after the addition, total RNA was extracted with “ISOGEN” (trade mark, product of NIPPON GENE CO., LTD.). The total RNA was subjected to RT-PCR in a manner known per se in the art, and amplified DNA fragments were subjected to agarose gel electrophoresis to compare expression levels. • Reaction conditions and the like for PT-PCR:
(§4) PT reaction: Conducted using “RNA PCR Core Kit” (trade name, product of Roche Molecular Systems, Inc.).
PCR: Using “Expanded™ High Fidelity PCR System” (trade name, manufactured of Boehringer Mannheim AG), thermal cycling was conducted through 25 cycles according to the following schemes: 95° C. for 1 minute—57° C. for 1 minute—72° C. for 1 minute. Incidentally, as PCR primers, the followings were used in sets: SEQ ID No:1 (Forward) and SEQ ID No: 2 (Reverse) in the case of PTX3; base SEQ ID No:3 (Forward) and SEQ ID No: 4 (Reverse) in the case of GAPDH.

Experiment [4] relates to PTX3 gene. Put plainly: PTX3 gene expression analysis by GeneChip array in HCASMC. In kind it is cell-based, human. The following applies: 8 hours after addition, control 1028.3. Here is the method: as §1, §2
Experiment [5] deals with PTX3 gene. In words: PTX3 gene expression by RT-PCR and agarose gel electrophoresis in HCASMC. The class given is cell-based, human. The settings on record: 1 μmol/L and 10 μmol/L, both 8 hours later and 24 hours later. As to the method:
as §3, §4
PCR: Using “Expanded™ High Fidelity PCR System” (trade name, manufactured of Boehringer Mannheim AG), thermal cycling was conducted through 25 cycles according to the following schemes: 95° C. for 1 minute—57° C. for 1 minute—72° C. for 1 minute. […]

Turning to “IFN-γ: inteferon-γ (IFN-γ), known from literature to suppress PTX3 gene expression”, the “expression of PTX3 gene in synovial cells of a rheumatoid arthritis patient” value in experiment [1] is on record as “suppressed”.
On to `O=C(O)C[C@H](O)C[C@H](O)/C=C/c1c(C2CC2)nc2ccccc2c1-c1ccc(F)cc1` [pitavastatin calcium, (3R,5S, 6 E)-7-[2-cyclopropyl-4-(4-fluorophenyl)-3-quinolyl]-3,5-dihydroxy-6-heptenoic acid], for which the “expression of PTX3 gene in HUVEC” value in experiment [2] (1.1 μmol/L) stood at 32.7. Besides, in experiment [3] (1 μmol/L and 10 μmol/L), the “concentration dependency of PTX3 gene expression suppression in HUVEC (RT-PCR)” value is “concentration-dependently suppressed”. Besides, the “expression of PTX3 gene in HUVEC compared with the control (RT-PCR)” value in experiment [3] (1.1 μmol/L) is “suppressed”. For the same compound, in experiment [4] (1.1 μmol/L), the “expression of PTX3 gene in HCASMC” value came out at 452.5. Besides, the “concentration dependency of PTX3 gene expression suppression in HCASMC (RT-PCR)” value in experiment [5] is “concentration-dependently suppressed”.
As to TGF-β, the “expression of PTX3 gene in synovial cells of a rheumatoid arthritis patient” value in experiment [1] is given as “suppressed”.
`CC(C)c1c(C(=O)Nc2ccccc2)c(-c2ccccc2)c(-c2ccc(F)cc2)n1CC[C@@H](O)C[C@@H](O)CC(=O)O` [atorvastatin calcium, (3R,5R)-7-[2-(4-fluorophenyl)-5-isopropyl-3-phenyl-4-phenylcarbamonyl-1H-pyrrol-1-yl]-3,5-dihydroxyheptanoic acid]: the “expression of PTX3 gene in HUVEC” value in experiment [2] (6.6 μmol/L) is given as 39.2. Moreover, the “expression of PTX3 gene in HUVEC compared with the control (RT-PCR)” value in experiment [3] (6.6 μmol/L) was “suppressed”. Moreover, the “expression of PTX3 gene in HCASMC” value in experiment [4] (6.6 μmol/L) is 432.1.
